Experiment [1] has as its system endogenous NAMPT in U2OS cells. Put plainly: Cellular NAD+ modulation assay (NAD/NADH-Glo, U2OS cells). Type of experiment: cell-based. The note with it: Homo sapiens; for maximal fold induction: read-out: Cellular Emax. The procedure, abridged:
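Endogenous NAMPT stimulation in U2OS cells treated with compound dilution series for 24 h at 37 °C. Cells lysed with DTAB base, acid-treated 15 min at 60 °C, neutralized, NAD+ read by NAD/NADH-Glo luminescence after 40 min at room temperature. EC50 and Emax (fold over DMSO) derived.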

The target of experiment [2] is T1, human enzyme NAMPT (full length) (Homo sapiens, UniProt P43490).
T1 construct: human enzyme NAMPT (full length)
Put plainly: NMN fluorescence biochemical assay (stimulation of NMN synthesis by NAMPT). The following applies: for EC50: concentration giving half-maximal activation, read-out: Enzymatic EC50; for Enzymatic Emax: fold change of maximal activation compared to DMSO. The procedure, abridged:
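Full-length human NAMPT (100 nM) was preincubated 15 min at 37 °C with compound in 50 mM Tris-HCl pH 7.5, 10 mM MgCl2, 2 mM DTT, then reacted 1 h at 37 °C with 50 μM NAM, 100 μM PRPP, 4 mM ATP (stated solution concentrations). NMN was derivatised with acetophenone/KOH then formic acid and read at Ex/Em 382/445 nm; EC50 and Emax (fold over DMSO) reported.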

[3] abbreviates: 24 hours incubation, cellular NAD+.
[4] abbreviates: NMN fluorescence assay, purified human NAMPT 100 nM.
Where [5] appears, read: 24 hours incubation with compound.
The mark [6] stands for this setting: NMN synthesis by purified human NAMPT (100 nM).

These results are taken from patent publication US20260078130A1, “NAMPT MODULATORS, PREPARATIONS, AND USES THEREOF” (SIRONAX LTD., priority 2022, published 2026).

Like-named read-outs stand apart in the source and are kept apart here.

The EC50 is the concentration needed to bring the measured effect to its halfway point.

T1 sequence (P43490 whole entry): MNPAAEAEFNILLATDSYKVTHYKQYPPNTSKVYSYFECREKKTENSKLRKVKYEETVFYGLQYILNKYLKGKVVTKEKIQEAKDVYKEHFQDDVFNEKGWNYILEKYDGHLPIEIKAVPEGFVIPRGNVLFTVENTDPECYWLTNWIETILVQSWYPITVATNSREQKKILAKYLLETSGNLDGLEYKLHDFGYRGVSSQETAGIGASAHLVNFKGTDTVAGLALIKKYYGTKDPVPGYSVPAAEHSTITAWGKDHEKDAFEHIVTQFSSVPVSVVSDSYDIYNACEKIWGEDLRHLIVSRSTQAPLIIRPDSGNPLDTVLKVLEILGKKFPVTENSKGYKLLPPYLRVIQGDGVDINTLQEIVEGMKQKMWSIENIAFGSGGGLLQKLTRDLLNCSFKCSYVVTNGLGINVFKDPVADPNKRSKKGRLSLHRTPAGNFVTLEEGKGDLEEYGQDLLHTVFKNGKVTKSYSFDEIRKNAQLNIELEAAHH

Turning to `[2H]C1([2H])NC(=O)OC12CC(CN1C(=O)c3ccccc3C1Cc1c(Cl)cnn1C)C2` (centres unmarked) [Compound 535, 2-((1-((4-chloro-1-methyl-1H-pyrazol-5-yl)methyl)-3-oxoisoindolin-2-yl)methyl)-5-oxa-7-azaspiro[3.4]octan-6-one-8,8-d2], in experiment [1] (setting [3]), the EC50 was less than 500 nM and the maximal fold induction is greater than 1.5. In addition, in experiment [2] (setting [4]), the EC50 was in the range of 500 to 5000 nM. Moreover, the “Enzymatic Emax” value in experiment [2] is reported as “A (A>3)”.
For `N#Cc1ccc(F)c(CC2c3ccccc3C(=O)N2Cc2ccc3[nH]c(=O)oc3c2)c1` (centres unmarked) [Compound 202, 4-fluoro-3-((3-oxo-2-((2-oxo-2,3-dihydrobenzo[d]oxazol-6-yl)methyl)isoindolin-1-yl)methyl)benzonitrile], in experiment [1] (setting [5]), the EC50 is less than 500 nM and the maximal fold induction is greater than 1.5. Besides, the EC50 in experiment [2] (setting [6]) is 500 to 5000 nM. Also, the “Enzymatic Emax” value in experiment [2] is given as “A (A>3)”.
Taken in the same sequence, the figures for `O=C1c2ccncc2CN1Cc1ccc(O)cc1` [Compound 43, 2-(4-hydroxybenzyl)-2,3-dihydro-1H-pyrrolo[3,4-c]pyridin-1-one] were 5000 to 50000 nM, 1.2 to 1.5, no less than 5000 nM and “A (A>3)”.
Consider `O=C1c2ccccc2C(Cc2ncccc2Br)N1Cc1cc(F)c2[nH]nnc2c1` (centres unmarked) [Compound 329, 3-((3-bromopyridin-2-yl)methyl)-2-((7-fluoro-1H-benzo[d][1,2,3]triazol-5-yl)methyl) isoindolin-1-one], for which, in experiment [1] (setting [3]), the EC50 lay in the range of 5000 to 50000 nM and the maximal fold induction was greater than 1.5. Also, in experiment [2] (setting [4]), the EC50 was less than 500 nM. Also, the “Enzymatic Emax” value in experiment [2] was “B (3≥B>2)”.
With `N#CCc1ccccc1CC1c2ccccc2C(=O)N1Cc1ccc2[nH]c(=O)oc2c1` (centres unmarked) [Compound 173, 2-(2-((3-oxo-2-((2-oxo-2,3-dihydrobenzo[d]oxazol-6-yl)methyl)isoindolin-1-yl)methyl)phenyl)acetonitrile], in experiment [1] (setting [5]), the EC50 lay within 500 to 5000 nM and the maximal fold induction is greater than 1.5. Moreover, the EC50 in experiment [2] (setting [6]) fell in the range of 500 to 5000 nM. In addition, the “Enzymatic Emax” value in experiment [2] was “B (3≥B>2)”.
Regarding `Cn1ncc(Cl)c1CC1c2cc(C3COC3)ccc2C(=O)N1Cc1ccc2[nH]nnc2c1` (centres unmarked) [Compound 370, 2-((1H-benzo[d][1,2,3]triazol-5-yl)methyl)-3-((4-chloro-1-methyl-1H-pyrazol-5-yl)methyl)-5-(oxetan-3-yl)isoindolin-1-one], in experiment [1] (setting [3]), the EC50 is less than 500 nM and the maximal fold induction is greater than 1.5. Moreover, the EC50 in experiment [2] (setting [4]) is less than 500 nM. Moreover, the “Enzymatic Emax” value in experiment [2] is listed as “B (3≥B>2)”.
As for `Cn1ncc(Cl)c1CC1c2ccccc2C(=O)N1CC1CC2(CNC(=S)O2)C1` (centres unmarked) [Compound 490, 3-((4-chloro-1-methyl-1H-pyrazol-5-yl)methyl)-2-((6-thioxo-5-oxa-7-azaspiro[3.4]octan-2-yl)methyl)isoindolin-1-one], in experiment [1] (setting [3]), the EC50 is 500 to 5000 nM and the maximal fold induction was greater than 1.5. The EC50 in experiment [2] (setting [4]) lay in the range of 500 to 5000 nM. The “Enzymatic Emax” value in experiment [2] is reported as “B (3≥B>2)”.
Regarding `COc1ccc2c(c1)CN(Cc1ccc(O)cc1)C2=O` [Compound 35, 2-(4-hydroxybenzyl)-5-methoxyisoindolin-1-one], in experiment [1] (setting [5]), the EC50 was in the range of 500 to 5000 nM and the maximal fold induction lay in the range of 1.2 to 1.5. For the same compound, in experiment [2] (setting [6]), the EC50 fell in the range of 500 to 5000 nM. In addition, in experiment [2], the “Enzymatic Emax” value was “A (A>3)”.
As for `Cc1ocnc1CC1c2ccccc2C(=O)N1Cc1ccc2[nH]c(=O)oc2c1` (centres unmarked) [Compound 231, 6-((1-((5-methyloxazol-4-yl)methyl)-3-oxoisoindolin-2-yl)methyl)benzo[d]oxazol-2(3H)-one], in experiment [1] (setting [5]), the EC50 lay in the range of 500 to 5000 nM and the maximal fold induction is greater than 1.5. Moreover, the EC50 in experiment [2] (setting [6]) is no less than 5000 nM. The “Enzymatic Emax” value in experiment [2] is “A (A>3)”.
`COc1ccc(CN2C(=O)c3ccccc3C2Cc2c(Cl)cnn2C)cc1Cl` (centres unmarked) [Compound 544, 3-((4-chloro-1-methyl-1H-pyrazol-5-yl)methyl)-2-(3-chloro-4-methoxybenzyl)isoindolin-1-one]: in experiment [1] (setting [3]), the EC50 lay in the range of 500 to 5000 nM and the maximal fold induction was in the range of 1.2 to 1.5. Moreover, the EC50 in experiment [2] (setting [4]) is 500 to 5000 nM. For the same compound, in experiment [2], the “Enzymatic Emax” value is given as “C (2≥C)”.
Regarding `Cn1ncc(Cl)c1CC1c2cc(C#N)ccc2C(=O)N1CC1CC2(CNC(=O)O2)C1` (centres unmarked) [Compound 464, 3-((4-chloro-1-methyl-1H-pyrazol-5-yl)methyl)-1-oxo-2-((6-oxo-5-oxa-7-azaspiro[3.4]octan-2-yl)methyl)isoindoline-5-carbonitrile], the EC50 in experiment [1] (setting [3]) and in experiment [2] (setting [4]) was 500 to 5000 nM throughout. For the same compound, the maximal fold induction in experiment [1] (setting [3]) is greater than 1.5. The “Enzymatic Emax” value in experiment [2] is recorded as “B (3≥B>2)”.
Turning to `COc1ccc(CN2C(=O)c3ccccc3C2Cc2c(C)ncnc2C#N)cn1` (centres unmarked) [Compound 595, 5-((2-((6-methoxypyridin-3-yl)methyl)-3-oxoisoindolin-1-yl)methyl)-6-methylpyrimidine-4-carbonitrile], in experiment [1] (setting [3]), the EC50 lay in the range of 500 to 5000 nM and the maximal fold induction was greater than 1.5. Moreover, the EC50 in experiment [2] (setting [4]) was 500 to 5000 nM. Moreover, the “Enzymatic Emax” value in experiment [2] is recorded as “B (3≥B>2)”.
Take `Cn1nc(CN2CCC2)c(Cl)c1CC1c2ccccc2C(=O)N1CC1CC2(CNC(=O)O2)C1` (centres unmarked) [Compound 508, 2-((1-((3-(azetidin-1-ylmethyl)-4-chloro-1-methyl-1H-pyrazol-5-yl)methyl)-3-oxoisoindolin-2-yl)methyl)-5-oxa-7-azaspiro[3.4]octan-6-one]: in experiment [1] (setting [3]), the EC50 was in the range of 500 to 5000 nM and the maximal fold induction was greater than 1.5. Besides, the EC50 in experiment [2] (setting [4]) was less than 500 nM. Moreover, the “Enzymatic Emax” value in experiment [2] is on record as “B (3≥B>2)”.
On the same counts, the results for `O=C1c2ccccc2C(Cc2n[nH]cc2Cl)N1Cc1ccc2[nH]nnc2c1` (centres unmarked) [Compound 388, 2-((1H-benzo[d][1,2,3]triazol-5-yl)methyl)-3-((4-chloro-1H-pyrazol-3-yl)methyl)isoindolin-1-one] are 500 to 5000 nM, greater than 1.5, less than 500 nM and “B (3≥B>2)”.
In the case of `Cn1ncc(Cl)c1CC1c2cc(Br)ccc2C(=O)N1Cc1ccc2[nH]nnc2c1` (centres unmarked) [Compound 326, 2-((1H-benzo[d][1,2,3]triazol-5-yl)methyl)-5-bromo-3-((4-chloro-1-methyl-1H-pyrazol-5-yl)methyl)isoindolin-1-one], in experiment [1] (setting [3]), the EC50 was less than 500 nM and the maximal fold induction is greater than 1.5. In addition, in experiment [2] (setting [4]), the EC50 is less than 500 nM. In addition, the “Enzymatic Emax” value in experiment [2] is listed as “A (A>3)”.
In the case of `Cc1ccnc(C#N)c1CC1c2ccccc2C(=O)N1CC1CC2(CNC(=O)O2)C1` (centres unmarked) [Compound 308, 4-methyl-3-((3-oxo-2-((6-oxo-5-oxa-7-azaspiro[3.4]octan-2-yl)methyl)isoindolin-1-yl)methyl)picolinonitrile], in experiment [1] (setting [5]), the EC50 is less than 500 nM and the maximal fold induction is greater than 1.5. The EC50 in experiment [2] (setting [6]) is less than 500 nM. Moreover, in experiment [2], the “Enzymatic Emax” value is reported as “B (3≥B>2)”.
Consider `Cn1ncc(Cl)c1CC1c2ccccc2C(=O)N1C/C(F)=C/c1nn[nH]c1F` (centres unmarked) [Compound 601, (Z)-3-((4-chloro-1-methyl-1H-pyrazol-5-yl)methyl)-2-(2-fluoro-3-(5-fluoro-1H-1,2,3-triazol-4-yl)allyl)isoindolin-1-one], for which, in experiment [1] (setting [3]), the EC50 is less than 500 nM and the maximal fold induction is 1.2 to 1.5. Besides, the EC50 in experiment [2] (setting [4]) was 500 to 5000 nM. In experiment [2], the “Enzymatic Emax” value is on record as “A (A>3)”.
